Experimental data taken from US8987486B2, “Trans-2-decenoic acid derivative and pharmaceutical agent containing the same” (Nagoya Industrial Science Research Institute, priority 2010, dated 2015).

Legend:
[1] = tested on: PC12 cells; test: Evaluation using PC12 cells; immunostaining method for MAPK phosphorylation; assay type: cell-based; details: 30 minutes
Method in brief: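 PC12 cells in DMEM with 1% FBS, exposed to compound for 30 min after 12–16 h in that medium; fixed and immunostained for phospho-p42/44 MAPK, nuclei counterstained with Hoechst. Value is percentage of pMAPK-positive cells (above a luminance threshold) among Hoechst-positive cells, from four images per coverslip.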

[2] = tested on: disablement model rats with hemi-transection of spinal cord; test: Improvement in motor function (BBB scale) in rats with hemi-transection of spinal cord; assay type: in vivo
Method: Female Wistar rats of seven weeks age (body weight: 120 to 140 g) were anesthetized with pentobarbital (40 mg/kg), thoracic vertebrae were detached to expose the thoracic cord and the left half thereof was cut at the position of the tenth thoracic cord using a sharp razor. After that, the muscle and the skin were satured to prepare disablement model rats with hemi-transection of spinal cord.
The compound of the present invention was dissolved in PBS or in a PBS solvent containing DMSO, etc. and orally administered once daily for 21 to 31 days.
With regard to the group administered with the compound of the present invention (n=3 to 6) and the control group (n=3 to 6), the improvement in motor function of the disablement model rats with hemi-transection of spinal cord was evaluated by a BBB scale (Basso D M, et al., J. Neurotrauma 12:1-21 (1995). Thus, evaluation of motor function was conducted for hind limbs of rats in such respects that whether the joint moves, whether body weight is applied onto the foot, whether walking is done, etc. wherein the movement of the hind limbs was divided into 21 points from no motility to normal state. Incidentally, the test for significance was conducted by a two-way ANOVA, Bonferroni Post test.

[3] = tested on: paclitaxel-induced peripheral nerve disorder rats; test: von Frey test in paclitaxel-induced peripheral nerve disorder rats; assay type: in vivo; details: Rattus norvegicus, ip; single intraperitoneal dose of 300 μ/kg; higher of the thresholds after 1 hour and 5 hours; normal threshold 15; read-out: Recovery rate of 50% reaction threshold value (%)
Method in brief: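 Male SD rats (six weeks, n=6/group) got paclitaxel 2 mg/kg i.p. every other day ×4. On days 18–25 or 20–27, test drug was given i.p. as a single […] dose. Von Frey up-down 50% thresholds (right hind paw) were taken pre-dose and at 1, 5, 24 h. Recovery rate used the higher 1/5 h value and a normal threshold of 15.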

| SMILES | Rate of pMAPK-positive cells (%) ([1]; 62.5 μg/mL) | Rate of pMAPK-positive cells (%) ([1]; 125 μg/mL) | BBB score ([2]; 100 μg/kg orally once daily, after nine days, control 3.5) | Rate of pMAPK-positive cells (%) ([1]; 250 μg/mL) | Rate of pMAPK-positive cells (%) ([1]; 500 μg/mL) | inhibition in vivo at 0.3 mg/kg [3] [%] | BBB score ([2]; 500 μg/kg orally once daily, after fifteen days, control 9.8) | BBB score ([2]; 500 μg/kg orally once daily, after fourteen days, control 8.5) | BBB score ([2]; 500 μg/kg orally once daily, after seven days, control 1.8) |
| --- | --- | --- | --- | --- | --- | --- | --- | --- | --- |
| CCCCCCC/C=C/C(=O)OCCN(CC)CC [Compound 6, (E)-2-(diethylamino)ethyl dec-2-enoate] | 31 | 51 | 8.3 | – | – | – | – | – | – |
| CCCCCCC/C=C/C(=O)NCCN(C)C [Compound 36, (E)-N-2-(dimethylamino)ethyl dec-2-enamide] | 12 | 70 | – | 89 | 43 | 72.1 | 12.3 | – | – |
| CCCCCCC/C=C/C(=O)NCCN(CC)CC [Compound 37, (E)-N-2-(diethylamino)ethyl dec-2-enamide] | 6 | 43 | – | 48 | 0 | 73.1 | – | – | – |
| CCCCCCC/C=C/C(=O)OCCN(C)C [Compound 1, (E)-2-(dimethylamino)ethyl dec-2-enoate] | 4 | 12 | – | 36 | 32 | 48.3 | – | – | – |
| CCCCCCC/C=C/C(=O)SCCN(C)C [Compound 55, (E)-S-2-(dimethylamino)ethyl dec-2-enethioate] | 20 | 46 | – | 41 | 10 | 45.4 | – | 12.3 | 5.3 |
